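Dose response: 5 concentrations. Exposure: 48 h. Format: 96-well plates. Endpoint: linear interpolation; highest concentration if not reached. The concentration for 50% growth inhibition is given as GI50.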 Calls of active or inactive are those of the source. Cut-off read from the data, not from the text of the source: active = GI50 up to about 1.1 µM and inactive = higher.
Key:
Experiment in all cases: NCI anticancer screen, dose series, 48 h
CAKI-1 = test system: CAKI-1
RPMI-8226 = test system: RPMI-8226
OVCAR-4 = test system: OVCAR-4
U-251 = test system: U-251
LOX IMVI = test system: LOX IMVI
NCI-H23 = test system: NCI-H23
SNB-19 = test system: SNB-19
CCRF-CEM = test system: CCRF-CEM
HOP-62 = test system: HOP-62
786-0 = test system: 786-0
HCT-116 = test system: HCT-116
A498 = test system: A498
SF-539 = test system: SF-539
HCC 2998 = test system: HCC 2998
SR = test system: SR

| Compound | GI50 (CAKI-1) | GI50 (RPMI-8226) | GI50 (OVCAR-4) | GI50 (U-251) | GI50 (LOX IMVI) | GI50 (NCI-H23) | GI50 (SNB-19) | GI50 (CCRF-CEM) | GI50 (HOP-62) | GI50 (786-0) | GI50 (HCT-116) | GI50 (A498) | GI50 (SF-539) | GI50 (HCC 2998) | GI50 (SR) |
| --- | --- | --- | --- | --- | --- | --- | --- | --- | --- | --- | --- | --- | --- | --- | --- |
| C/C=C(/I)CBr | 1.07 µM (active) | 10.4 µM (inactive) | 17.3 µM (inactive) | > 10 µM (inactive) | 16.2 µM (inactive) | 16.7 µM (inactive) | 23.7 µM (inactive) | 3.78 µM (inactive) | 22.5 µM (inactive) | 17 µM (inactive) | 13.9 µM (inactive) | > 10 µM (inactive) | 17 µM (inactive) | 15.9 µM (inactive) |  |
| COc1ccc(C(=O)C(c2ccc(OC)cc2)C2(O)C(=O)Nc3c(Cl)cc(Cl)cc32)cc1 (stereo unspecified) | 19.1 µM (inactive) | 11.9 µM (inactive) | 6.34 µM (inactive) | 33.1 µM (inactive) | 19.3 µM (inactive) | 19.5 µM (inactive) | 23.8 µM (inactive) | 15.6 µM (inactive) | 23.8 µM (inactive) | 14.3 µM (inactive) |  |  |  | > 10 µM (inactive) |  |
| CC1=NN=C(NCCN(C)C)C/C1=C/c1ccccc1Cl | 73.5 µM (inactive) |  | > 100 µM (inactive) | > 100 µM (inactive) | 90.6 µM (inactive) | > 100 µM (inactive) | > 100 µM (inactive) |  | > 100 µM (inactive) | > 100 µM (inactive) | > 100 µM (inactive) | > 100 µM (inactive) | > 100 µM (inactive) | > 100 µM (inactive) |  |
| CCOC(=O)c1ncn2c1[nH]c(=O)c1ccccc12 |  | > 100 µM (inactive) | > 100 µM (inactive) | > 100 µM (inactive) | > 100 µM (inactive) | > 100 µM (inactive) | > 100 µM (inactive) | > 100 µM (inactive) |  | > 100 µM (inactive) | > 100 µM (inactive) |  | > 100 µM (inactive) |  | > 100 µM (inactive) |
| OC(c1ccccn1)C1CNc2ccccc21 (stereo unspecified) | > 100 µM (inactive) | > 100 µM (inactive) | > 100 µM (inactive) | > 100 µM (inactive) | > 100 µM (inactive) | > 100 µM (inactive) | > 100 µM (inactive) | > 100 µM (inactive) | > 100 µM (inactive) | > 100 µM (inactive) | > 100 µM (inactive) | > 100 µM (inactive) | > 100 µM (inactive) | > 100 µM (inactive) |  |
| COc1ccc(/C=C/C(=O)c2c(-c3ccccc3)nn(C)c(=O)c2N2CC2C)cc1 (stereo unspecified) | 44.5 µM (inactive) |  | 27.9 µM (inactive) | 27.9 µM (inactive) | 16.3 µM (inactive) | 19 µM (inactive) | 37.8 µM (inactive) | 22.9 µM (inactive) | 35.6 µM (inactive) | 36.4 µM (inactive) | 36.1 µM (inactive) | 23.9 µM (inactive) | 39.1 µM (inactive) | 26.6 µM (inactive) |  |
| Cc1cc2c(cc1C)[n+]([O-])c(-c1c(Cl)cccc1Cl)c(N)[n+]2[O-] | 31 µM (inactive) | 67.5 µM (inactive) | 39 µM (inactive) | 33.3 µM (inactive) | 44.7 µM (inactive) | 24.1 µM (inactive) | 25.5 µM (inactive) |  | 30.5 µM (inactive) | 52 µM (inactive) |  | 26.2 µM (inactive) | 27.9 µM (inactive) | 25.8 µM (inactive) |  |
| COC(=O)C(CC(C)=O)CS(=O)(=O)CC(=O)C(=O)Nc1cccc([N+](=O)[O-])c1 (stereo unspecified) | > 100 µM (inactive) | > 100 µM (inactive) | > 100 µM (inactive) | > 100 µM (inactive) | > 100 µM (inactive) | > 100 µM (inactive) | > 100 µM (inactive) | > 100 µM (inactive) | > 100 µM (inactive) | > 100 µM (inactive) | > 100 µM (inactive) | > 100 µM (inactive) | > 100 µM (inactive) | > 100 µM (inactive) |  |

Reference: ChEMBL document CHEMBL1201862, “PubChem BioAssay data set” (2004)
